In patent US10407467B2, “Polymyxin derivatives and their use in combination therapy together with different antibiotics” (priority 2013, dated 2019):
Like-named read-outs stand apart in the source and are kept apart here. Marks after values point to notes of the source that are not given here.

Legend:
Acinetobacter baumannii [1] = test: MIC, compound in combination with a second agent (broth microdilution); type: cell-based
Method in brief: (§1)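 MIC = combined concentration of test compound plus partner agent, mixed at equal mass (1:1 w/w, salt form as used). Up to four strains per species; colonies adjusted to 0.5 McFarland. Run in duplicate; >2-fold disagreement invalidates the run.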

Escherichia coli [2] = test: as above; type: cell-based
Method in brief: as §1

Klebsiella pneumoniae [3] = test: as above; type: cell-based; conditions: for MIC K. pneumoniae ATCC 4352 / MIC K. pneumoniae CCUG 59349: total drug concentration
Method in brief: as §1

Pseudomonas aeruginosa [4] = test: as above; type: cell-based; conditions: for MIC P. aeruginosa ATCC 10145: total drug concentration
Method in brief: as §1

Acinetobacter baumannii [5] = test: MIC, sole activity (no second agent); type: cell-based
Method in brief: (§2)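 First, isolated colonies grown 18-24 hours on Mueller-Hinton agar were suspended to 0.5 McFarland; next, up to four strains per pathogen were tested in duplicate in cation-adjusted MHB; finally, the lower concordant value or modal repeat value was reported against Polymyxin B.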

Escherichia coli [6] = test: MIC, sole activity (no second agent); type: cell-based
Method in brief: as §2

Klebsiella pneumoniae [7] = test: MIC, sole activity (no second agent); type: cell-based
Method in brief: as §2

Pseudomonas aeruginosa [8] = test: MIC, sole activity (no second agent); type: cell-based
Method in brief: as §2

[9] = test system: Escherichia coli isolate ATCC25922; conditions: subcutaneous BID
[10] = 1:1 combination with Aztreonam, total drug concentration
[11] = Table 6A, no second agent, different supplier of Cation-adjusted MHB

Polymyxin B [reference compound]
4.87 log10 CFU: Mean log10 CFU reduction vs. control ([9]; Table 11A, separate study, total daily dosage 10 mg/kg (sulfate salt))
0.125 micrograms/mL: MIC A. baumannii ATCC BAA-747 (Acinetobacter baumannii [1]; 1:1 (wt:wt) combination with Rifampicin, MIC = total drug concentration, strain ATCC BAA-747) | MIC A. baumannii NCTC 13423 (Acinetobacter baumannii [1]; 1:1 (wt:wt) combination with Rifampicin, MIC = total drug concentration, strain NCTC 13423) | MIC A. baumannii NCTC 13424 (Acinetobacter baumannii [1]; A. baumannii NCTC 13424, 1:1 combination with Novobiocin, total drug concentration) | MIC E. coli ATCC25922 (Escherichia coli [2]; [10]) | MIC A. baumannii NCTC 13424 (Acinetobacter baumannii [5]; Second Agent none (Table 7E)) | MIC A. baumannii NCTC 13424 (Acinetobacter baumannii [5]; Table 7F, A. baumannii NCTC 13424, second agent none) | MIC A. baumannii NCTC 13424 (Acinetobacter baumannii [5]; Table 7H, A. baumannii NCTC 13424, second agent none)
4 micrograms/mL: MIC K. pneumoniae ATCC 4352 (Klebsiella pneumoniae [3]; K. pneumoniae ATCC4352, 1:1 combination with Oxacillin)
≤0.06 micrograms/mL: MIC K. pneumoniae ATCC 4352 (Klebsiella pneumoniae [3]; 1:1 combination with Aztreonam)
0.5 micrograms/mL: MIC A. baumannii NCTC 13424 (Acinetobacter baumannii [1]; 1:1 (wt:wt) combination with Rifampicin, MIC = total drug concentration, strain NCTC 13424) | MIC E. coli NCTC9001 (Escherichia coli [2]; 1:1 (wt:wt) combination with Rifampicin, MIC = total drug concentration, strain NCTC9001) | MIC E. coli ATCC25922 (Escherichia coli [2]; E. coli ATCC25922, 1:1 combination with Novobiocin, total drug concentration) | MIC P. aeruginosa ATCC 27853 (Pseudomonas aeruginosa [4]; 1:1 (wt:wt) combination with Rifampicin, MIC = total drug concentration, strain ATCC 27853) | MIC P. aeruginosa ATCC-47 (Pseudomonas aeruginosa [4]; 1:1 (wt:wt) combination with Rifampicin, MIC = total drug concentration, strain ATCC-47) | MIC P. aeruginosa CCUG 59626 (Pseudomonas aeruginosa [4]; 1:1 (wt:wt) combination with Rifampicin, MIC = total drug concentration, strain CCUG 59626) | MIC A. baumannii NCTC 13424 (Acinetobacter baumannii [5]; [11]) | MIC A. baumannii ATCCBAA-747 (Acinetobacter baumannii [5]; in the absence of Rifampicin, strain ATCCBAA-747) | MIC A. baumannii NCTC 13423 (Acinetobacter baumannii [5]; in the absence of Rifampicin, strain NCTC13423) | MIC E. coli ATCC25922 (Escherichia coli [6]; Second Agent none (Table 7E)) | MIC E. coli ATCC25922 (Escherichia coli [6]; Table 7F, E. coli ATCC25922, second agent none) | MIC E. coli ATCC25922 (Escherichia coli [6]; Table 7G, E. coli ATCC25922, second agent none) | MIC E. coli ATCC25922 (Escherichia coli [6]; Table 7H, E. coli ATCC25922, second agent none) | MIC E. coli ATCC25922 (Escherichia coli [6]; Table 7I, E. coli ATCC25922, second agent none) | MIC K. pneumoniae CCUG 59349 (Klebsiella pneumoniae [7]; Second Agent none (Table 7E)) | MIC K. pneumoniae ATCC BAA-2146 (Klebsiella pneumoniae [7]; [11]) | MIC K. pneumoniae CCUG 59349 (Klebsiella pneumoniae [7]; Table 7F, K. pneumoniae CCUG 59349, second agent none) | MIC K. pneumoniae CCUG 59349 (Klebsiella pneumoniae [7]; Table 7H, K. pneumoniae CCUG 59349, second agent none) | MIC P. aeruginosa ATCC 10145 (Pseudomonas aeruginosa [8]; Second Agent none (Table 7E)) | MIC P. aeruginosa ATCC 27853 (Pseudomonas aeruginosa [8]; [11]) | MIC P. aeruginosa CCUG 59347 (Pseudomonas aeruginosa [8]; [11]) | MIC P. aeruginosa ATCC 10145 (Pseudomonas aeruginosa [8]; Table 7F, P. aeruginosa ATCC 10145, second agent none) | MIC P. aeruginosa ATCC 10145 (Pseudomonas aeruginosa [8]; Table 7H, P. aeruginosa ATCC 10145, second agent none) | MIC P. aeruginosa ATCC 27853 (Pseudomonas aeruginosa [8]; in the absence of Rifampicin, strain ATCC27853) | MIC P. aeruginosa CCUG 59626 (Pseudomonas aeruginosa [8]; in the absence of Rifampicin, strain CCUG 59626)
3.75 log10 CFU: Mean log10 CFU reduction vs. control ([9]; Table 11A, separate study, total daily dosage 3 mg/kg (sulfate salt))
1 micrograms/mL: MIC A. baumannii NCTC 13424 (Acinetobacter baumannii [1]; [10]) | MIC A. baumannii NCTC 13424 (Acinetobacter baumannii [1]; A. baumannii NCTC 13424, 1:1 combination with Azithromycin, total drug concentration) | MIC E. coli NCTC 13441 (Escherichia coli [2]; [10]) | MIC E. coli NCTC 13441 (Escherichia coli [2]; E. coli NCTC 13441, 1:1 combination with Azithromycin, total drug concentration) | MIC E. coli NCTC 13441 (Escherichia coli [2]; E. coli NCTC 13441, 1:1 combination with Novobiocin, total drug concentration) | MIC K. pneumoniae ATCC-BAA-2146 (Klebsiella pneumoniae [3]; 1:1 (wt:wt) combination with Rifampicin, MIC = total drug concentration, strain ATCC-BAA-2146) | MIC K. pneumoniae CCUG-59348 (Klebsiella pneumoniae [3]; 1:1 (wt:wt) combination with Rifampicin, MIC = total drug concentration, strain CCUG-59348) | MIC K. pneumoniae NCTC 13438 (Klebsiella pneumoniae [3]; 1:1 (wt:wt) combination with Rifampicin, MIC = total drug concentration, strain NCTC 13438) | MIC K. pneumoniae ATCC 4352 (Klebsiella pneumoniae [3]; K. pneumoniae ATCC4352, 1:1 combination with Fusidic acid) | MIC K. pneumoniae CCUG 59349 (Klebsiella pneumoniae [3]; K. pneumoniae CCUG 59349, 1:1 combination with Novobiocin) | MIC P. aeruginosa ATCC 10145 (Pseudomonas aeruginosa [4]; 1:1 combination with Aztreonam) | MIC P. aeruginosa ATCC 10145 (Pseudomonas aeruginosa [4]; P. aeruginosa ATCC 10145, 1:1 combination with Azithromycin) | MIC P. aeruginosa ATCC 10145 (Pseudomonas aeruginosa [4]; P. aeruginosa ATCC 10145, 1:1 combination with Novobiocin) | MIC A. baumannii ATCC13424 (Acinetobacter baumannii [5]; in the absence of Rifampicin, strain ATCC13424) | MIC A. baumannii CCUG57249 (Acinetobacter baumannii [5]; in the absence of Rifampicin, strain CCUG 57249) | MIC E. coli NCTC 13441 (Escherichia coli [6]; Second Agent none (Table 7E)) | MIC E. coli NCTC 13441 (Escherichia coli [6]; Table 7F, E. coli NCTC 13441, second agent none) | MIC E. coli NCTC 13441 (Escherichia coli [6]; Table 7H, E. coli NCTC 13441, second agent none) | MIC E. coli ATCC25922 (Escherichia coli [6]; in the absence of Rifampicin, strain ATCC25922) | MIC E. coli NCTC9001 (Escherichia coli [6]; in the absence of Rifampicin, strain NCTC9001) | MIC K. pneumoniae ATCC 4352 (Klebsiella pneumoniae [7]; in the absence of Rifampicin, strain ATCC 4352) | MIC K. pneumoniae NCTC-13438 (Klebsiella pneumoniae [7]; in the absence of Rifampicin, strain NCTC-13438)
2 micrograms/mL: MIC E. coli ATCC25922 (Escherichia coli [2]; E. coli ATCC25922, 1:1 combination with Fusidic acid, total drug concentration) | MIC E. coli ATCC25922 (Escherichia coli [2]; E. coli ATCC25922, 1:1 combination with Oxacillin, total drug concentration) | MIC K. pneumoniae CCUG 59349 (Klebsiella pneumoniae [3]; 1:1 combination with Aztreonam) | MIC K. pneumoniae CCUG 59349 (Klebsiella pneumoniae [3]; K. pneumoniae CCUG 59349, 1:1 combination with Azithromycin) | MIC K. pneumoniae ATCC-BAA2146 (Klebsiella pneumoniae [7]; in the absence of Rifampicin, strain ATCC-BAA2146) | MIC P. aeruginosa ATCC-47 (Pseudomonas aeruginosa [8]; in the absence of Rifampicin, strain ATCC-47)
4.2 ^a log10 CFU: Mean log10 CFU reduction vs. control ([9]; Table 11, total daily dosage 10 mg/kg (sulfate salt), 24 h post-infection)
16 micrograms/mL: MIC K. pneumoniae CCUG-59348 (Klebsiella pneumoniae [7]; in the absence of Rifampicin, strain CCUG-59348)
0.25 micrograms/mL: MIC A. baumannii CCUG57249 (Acinetobacter baumannii [1]; 1:1 (wt:wt) combination with Rifampicin, MIC = total drug concentration, strain CCUG57249) | MIC E. coli ATCC25922 (Escherichia coli [2]; 1:1 (wt:wt) combination with Rifampicin, MIC = total drug concentration, strain ATCC25922) | MIC E. coli ATCC25922 (Escherichia coli [2]; E. coli ATCC25922, 1:1 combination with Azithromycin, total drug concentration) | MIC K. pneumoniae ATCC 4352 (Klebsiella pneumoniae [3]; K. pneumoniae ATCC4352, 1:1 combination with Azithromycin) | MIC K. pneumoniae ATCC 4352 (Klebsiella pneumoniae [3]; K. pneumoniae ATCC4352, 1:1 combination with Novobiocin) | MIC P. aeruginosa ATCC CRM-9027 (Pseudomonas aeruginosa [4]; 1:1 (wt:wt) combination with Rifampicin, MIC = total drug concentration, strain ATCC CRM-9027) | MIC A. baumannii ATCC BAA-747 (Acinetobacter baumannii [5]; [11]) | MIC E. coli ATCC25922 (Escherichia coli [6]; [11]) | MIC E. coli NCTC 13441 (Escherichia coli [6]; [11]) | MIC K. pneumoniae ATCC 4352 (Klebsiella pneumoniae [7]; [11]) | MIC P. aeruginosa ATCCCRM-9027 (Pseudomonas aeruginosa [8]; in the absence of Rifampicin, strain ATCCCRM-9027)
2.5 ^a log10 CFU: Mean log10 CFU reduction vs. control ([9]; Table 11, total daily dosage 3 mg/kg (sulfate salt), 24 h post-infection)
